Several values for one entry are separate records, joined by “and”; a condition that tells them apart may be missing. Equal values may be shown once. Read-outs that look alike come from different tables or passages of the source.
Columns and labels:
[1] = Elution of lidocaine-blended UHMWPE cubes in 40° C. DI water, FTIR lidocaine index profile; type: physicochemical; conditions: 0.25 wt % and 0.50 wt % lidocaine blends, up to 6 weeks
Method: These cubes were then immersed in 40° C. DI water. Groups of n=3 cubes per each wt. % were removed from the DI water and analyzed via FTIR at the following time points: 0 weeks (Control), 1 week, 2 weeks, 4 weeks, and 6 weeks.

[2] = for amount of lidocaine eluted: cubes doped 640 min at 100° C.
From the text: The cubes were microtomed perpendicular to a surface plane in the middle of the said surface and the FTIR spectra of the thin sections prepared as described above were obtained as a function of depth from the surface towards the bulk.

[3] = CISM 1 cm cubes, 120° C.
[4] = cited from earlier work

2-(Dimethylamino)-N-(2,6-Dimethylphenyl)acetamide [lidocaine]
surface concentration of lidocaine in UHMWPE with increasing elution time [1]: decrease
lidocaine eluted, percent ([2]; 40° C. DI H2O, 1 day): 13%
amount of lidocaine eluted ([2]; 40° C. DI H2O, 1 day): 1.4 ± 0.1 mg
lidocaine eluted, percent ([2]; 40° C. DI H2O, 2 days): 20%
amount of lidocaine eluted ([2]; 40° C. DI H2O, 2 days): 2.2 ± 0.1 mg
lidocaine eluted, percent ([2]; 40° C. DI H2O, 7 days): 34%
amount of lidocaine eluted ([2]; 40° C. DI H2O, 7 days): 3.6 ± 0.1 mg
lidocaine eluted, percent ([2]; 40° C. DI H2O, 14 days): 45%
amount of lidocaine eluted ([2]; 40° C. DI H2O, 14 days): 4.8 ± 0.1 mg
lidocaine eluted, percent ([2]; 40° C. DI H2O, 28 days): 59%
amount of lidocaine eluted ([2]; 40° C. DI H2O, 28 days): 6.3 ± 0.2 mg
lidocaine eluted, percent ([2]; 40° C. DI H2O, 56 days): 70%
amount of lidocaine eluted ([2]; 40° C. DI H2O, 56 days): 7.5 ± 0.1 mg
lidocaine eluted, percent ([2]; 100° C. DI H2O, 0.6 hours): 19%
amount of lidocaine eluted ([2]; 100° C. DI H2O, 0.6 hours): 2.0 ± 0.0 mg
lidocaine eluted, percent ([2]; 100° C. DI H2O, 2.6 hours): 38%
amount of lidocaine eluted ([2]; 100° C. DI H2O, 2.6 hours): 4.1 ± 0.1 mg
lidocaine eluted, percent ([2]; 100° C. DI H2O, 5.3 hours): 49%
amount of lidocaine eluted ([2]; 100° C. DI H2O, 5.3 hours): 5.2 ± 0.0 mg
lidocaine eluted, percent ([2]; 100° C. DI H2O, 12 hours): 70%
amount of lidocaine eluted ([2]; 100° C. DI H2O, 12 hours): 7.3 ± 0.0 mg
lidocaine eluted, percent ([2]; 100° C. DI H2O, 24 hours): 79%
amount of lidocaine eluted ([2]; 100° C. DI H2O, 24 hours): 8.6 ± 0.2 mg
lidocaine eluted, percent ([2]; 100° C. DI H2O, 48 hours): 85%
amount of lidocaine eluted ([2]; 100° C. DI H2O, 48 hours): 9.0 ± 0.1 mg
amount of lidocaine absorbed ([3]; doping time 1 hour): 10.6 ± 0.3 mg
amount of lidocaine absorbed ([3]; doping time 2 hours): 16.8 ± 0.1 mg
amount of lidocaine absorbed ([3]; doping time 6 hours): 30.8 ± 0.2 mg and ~31 mg
amount of lidocaine absorbed ([3]; doping time 12 hours): 40.3 ± 0.2 mg
amount of lidocaine absorbed ([3]; doping time 24 hours): 52.1 ± 0.9 mg
amount of lidocaine absorbed ([3]; doping time […]): 3.0 ± 0.1 mg

CCCCN1CCCCC1C(=O)Nc1c(C)cccc1C.Cl (stereo not shown) [bupivacaine hydrochloride, 1-Butyl-N-(2,6-dimethylphenyl)-2-piperidinecarboxamide hydrochloride]
solubility in cold water [4]: soluble
solubility in diethyl ether [4]: partially soluble
solubility in methanol [4]: easily soluble

Source: patent publication US20230256139A1, “IMPLANT SURFACES FOR PAIN CONTROL” (The General Hospital Corporation, priority 2016, published 2023)
